# Assay results taken from EPA's CvTdb concentration-time database.
# Key:
# Experiment in all cases: concentration in plasma after dosing
# Rat [1] = conditions: dosed: Phenolphthalein, 25 mg/kg, iv, Male, F344
# Rat [2] = conditions: dosed: Phenolphthalein, 25 mg/kg, iv, Female, F344
# Rat [3] = conditions: dosed: Phenolphthalein, 25 mg/kg, iv, Male, F344; remark: listed apart in the source
# Rat [4] = conditions: dosed: Phenolphthalein, 25 mg/kg, iv, Female, F344; remark: listed apart in the source
# Rat [5] = conditions: dosed: Phenolphthalein, 25 mg/kg, iv, Male, F344; remark: listed apart in the source
# Rat [6] = conditions: dosed: Phenolphthalein, 25 mg/kg, iv, Female, F344; remark: listed apart in the source
# Rat [7] = conditions: dosed: Phenolphthalein, 25 mg/kg, iv, Female, F344; remark: listed apart in the source
# Rat [8] = conditions: 5 h; dosed: Phenolphthalein; 25 mg/kg; iv; Male; F344
# Rat [9] = conditions: 16 h; dosed: Phenolphthalein; 25 mg/kg; iv; Female; F344
# Rat [10] = conditions: dosed: Phenolphthalein, 25 mg/kg, iv, Female, F344; remark: listed apart in the source
# Rat [11] = conditions: 5 min; dosed: Phenolphthalein; 25 mg/kg; iv; Male; F344
# Rat [12] = conditions: 2.5 min; dosed: Phenolphthalein; 25 mg/kg; iv; Male; F344
# Rat [13] = conditions: 4 h; dosed: Phenolphthalein; 25 mg/kg; iv; Male; F344
# Rat [14] = conditions: dosed: Phenolphthalein, 25 mg/kg, iv, Female, F344; remark: listed apart in the source
# Rat [15] = conditions: 16 h; dosed: Phenolphthalein; 25 mg/kg; iv; Female; F344; remark: listed apart in the source
# Rat [16] = conditions: dosed: Phenolphthalein, 25 mg/kg, iv, Female, F344; remark: listed apart in the source
# Rat [17] = conditions: dosed: Phenolphthalein, 25 mg/kg, iv, Female, F344; remark: listed apart in the source
# Rat [18] = conditions: dosed: Phenolphthalein, 25 mg/kg, iv, Female, F344; remark: listed apart in the source
# Rat [19] = conditions: 1 h; dosed: Phenolphthalein; 25 mg/kg; iv; Male; F344
# Rat [20] = conditions: dosed: Phenolphthalein, 25 mg/kg, iv, Male, F344; remark: listed apart in the source
# Rat [21] = conditions: dosed: Phenolphthalein, 25 mg/kg, iv, F344
# Rat [22] = conditions: dosed: Phenolphthalein, 25 mg/kg, iv, Female, F344; remark: listed apart in the source
# Rat [23] = conditions: 3 h; dosed: Phenolphthalein; 25 mg/kg; iv; Male; F344
# Rat [24] = conditions: dosed: Phenolphthalein, 25 mg/kg, iv, Female, F344; remark: listed apart in the source
# Rat [25] = conditions: dosed: Phenolphthalein, 25 mg/kg, iv, Female, F344; remark: listed apart in the source
# Rat [26] = conditions: dosed: Phenolphthalein, 25 mg/kg, iv, Female, F344; remark: listed apart in the source
# Rat [27] = conditions: 5 h; dosed: Phenolphthalein; 25 mg/kg; iv; Male; F344; remark: listed apart in the source
# Rat [28] = conditions: 3 h; dosed: Phenolphthalein; 25 mg/kg; iv; Male; F344; remark: listed apart in the source
# Rat [29] = conditions: 5 min; dosed: Phenolphthalein; 25 mg/kg; iv; Male; F344; remark: listed apart in the source
# Rat [30] = conditions: 2.5 min; dosed: Phenolphthalein; 25 mg/kg; iv; Male; F344; remark: listed apart in the source
# Rat [31] = conditions: dosed: Phenolphthalein, 25 mg/kg, iv, Female, F344; remark: listed apart in the source
structure (smiles),measurement,setting,value
O=C1OC(c2ccc(O)cc2)(c2ccc(O)cc2)c2ccccc21 [Phenolphthalein],concentration in plasma,Rat [1]; 2 h,636 ng/mL
same,concentration in plasma,Rat [1]; 8 h,110 ng/mL
same,concentration in plasma,Rat [2]; 4 h,127 ng/mL
same,concentration in plasma,Rat [2]; 7 h,36.5 ng/mL
same,concentration in plasma,Rat [3]; 2 h,662 ng/mL
same,concentration in plasma,Rat [3]; 8 h,83.6 ng/mL
same,concentration in plasma,Rat [4]; 5 h,58.5 ng/mL
same,concentration in plasma,Rat [4]; 10 h,17.4 ng/mL
same,concentration in plasma,Rat [5]; 1 h,2380 ng/mL
same,concentration in plasma,Rat [5]; 6 h,199 ng/mL
same,concentration in plasma,Rat [6]; 1 h,841 ng/mL
same,concentration in plasma,Rat [6]; 6 h,290 ng/mL
same,concentration in plasma,Rat [7]; 2 h,261 ng/mL
same,concentration in plasma,Rat [7]; 8 h,46.7 ng/mL
same,concentration in plasma,Rat [8],552 ng/mL
same,concentration in plasma,Rat [9],24.5 ng/mL
same,concentration in plasma,Rat [10]; 5 min,52100 ng/mL
same,concentration in plasma,Rat [10]; 24 h,23 ng/mL
same,concentration in plasma,Rat [11],58300 ng/mL
same,concentration in plasma,Rat [12],216000 ng/mL
same,concentration in plasma,Rat [13],25.1 ng/mL
same,concentration in plasma,Rat [14]; 3 h,153 ng/mL
same,concentration in plasma,Rat [14]; 12 h,26.7 ng/mL
same,concentration in plasma,Rat [15],20.3 ng/mL
same,concentration in plasma,Rat [16]; 5 min,5180 ng/mL
same,concentration in plasma,Rat [16]; 24 h,69.4 ng/mL
same,concentration in plasma,Rat [17]; 2 h,261 ng/mL
same,concentration in plasma,Rat [17]; 8 h,43.2 ng/mL
same,concentration in plasma,Rat [18]; 4 h,47.5 ng/mL
same,concentration in plasma,Rat [18]; 7 h,15.5 ng/mL
same,concentration in plasma,Rat [19],1990 ng/mL
same,concentration in plasma,Rat [20]; 4 h,366 ng/mL
same,concentration in plasma,Rat [20]; 7 h,63 ng/mL
same,concentration in plasma,"Rat [21]; 2.5 min, Female",115000 ng/mL
same,concentration in plasma,"Rat [21]; 2.5 min, Male",195000 ng/mL
same,concentration in plasma,"Rat [21]; 5 min, Female",52300 ng/mL
same,concentration in plasma,"Rat [21]; 5 min, Male",51000 ng/mL
same,concentration in plasma,"Rat [21]; 1 h, Female",1090 ng/mL
same,concentration in plasma,"Rat [21]; 1 h, Male",1790 ng/mL
same,concentration in plasma,"Rat [21]; 2 h, Female",259 ng/mL
same,concentration in plasma,"Rat [21]; 2 h, Male",592 ng/mL
same,concentration in plasma,"Rat [21]; 3 h, Female",290 ng/mL
same,concentration in plasma,"Rat [21]; 3 h, Male",43.2 ng/mL
same,concentration in plasma,"Rat [21]; 4 h, Female",173 ng/mL
same,concentration in plasma,"Rat [21]; 4 h, Male",317 ng/mL
same,concentration in plasma,"Rat [21]; 5 h, Female",105 ng/mL
same,concentration in plasma,"Rat [21]; 5 h, Male",691 ng/mL
same,concentration in plasma,"Rat [21]; 6 h, Female",89.9 ng/mL
same,concentration in plasma,"Rat [21]; 6 h, Male",59.4 ng/mL
same,concentration in plasma,"Rat [21]; 7 h, Female",56.9 ng/mL
same,concentration in plasma,"Rat [21]; 7 h, Male",248 ng/mL
same,concentration in plasma,"Rat [21]; 8 h, Female",32.4 ng/mL
same,concentration in plasma,"Rat [21]; 8 h, Male",274 ng/mL
same,concentration in plasma,"Rat [21]; 10 h, Female",45.5 ng/mL
same,concentration in plasma,"Rat [21]; 10 h, Male",42.3 ng/mL
same,concentration in plasma,"Rat [21]; 12 h, Female",98.5 ng/mL
same,concentration in plasma,"Rat [21]; 16 h, Female",120 ng/mL
same,concentration in plasma,"Rat [21]; 16 h, Male",20.2 ng/mL
same,concentration in plasma,"Rat [21]; 20 h, Female",18.6 ng/mL
same,concentration in plasma,"Rat [21]; 24 h, Female",60.2 ng/mL
same,concentration in plasma,Rat [22]; 2.5 min,164000 ng/mL
same,concentration in plasma,Rat [22]; 20 h,22 ng/mL
same,concentration in plasma,Rat [23],94.5 ng/mL
same,concentration in plasma,Rat [24]; 5 h,56.9 ng/mL
same,concentration in plasma,Rat [24]; 10 h,70.2 ng/mL
same,concentration in plasma,Rat [25]; 1 h,1400 ng/mL
same,concentration in plasma,Rat [25]; 6 h,392 ng/mL
same,concentration in plasma,Rat [26]; 3 h,336 ng/mL
same,concentration in plasma,Rat [26]; 12 h,96 ng/mL
same,concentration in plasma,Rat [27],19.1 ng/mL
same,concentration in plasma,Rat [28],561 ng/mL
same,concentration in plasma,Rat [29],58500 ng/mL
same,concentration in plasma,Rat [30],219000 ng/mL
same,concentration in plasma,Rat [31]; 2.5 min,167000 ng/mL
same,concentration in plasma,Rat [31]; 20 h,17.4 ng/mL
